According to ChEMBL document CHEMBL5608241, “Discovery of Novel Non-nucleoside DOT1LR231Q Inhibitors with Improved Pharmacokinetic Properties and Anti-lung Cancer Efficacy” (J Med Chem, 2024):
Active and inactive are the calls of the source. The rule behind the calls is not given here.

How the values were obtained:
NCI-H460 [1] = test: Inhibition of sphere formation in human NCI-H460 cells exogenously expressing wildtype DOT1L (unknown origin) (1 to 416 residues) assessed as reduction in self-renewal at 5 uM incubated for 7 to 14 days by inverted microscopic analysis relative to control; format: functional; conditions: time 7-14 day
NCI-H460 [2] = test: Antimigratory activity in human NCI-H460 cells exogenously expressing wildtype DOT1L (unknown origin) (1 to 416 residues) assessed as decrease in number of migrating cells at 5 uM measured after 72 hrs by wound healing assay relative to control; format: functional; design: scale not given: the % may be the effect or the level left
[3] = Half-life in male Sprague-Dawley rat at 20 mg/kg, iv measured after 24 hrs by LC-MS/MS analysis; format: ADME, organism-based; conditions: in vivo
[4] = Half-life in male Sprague-Dawley rat at 20 mg/kg, ip measured after 24 hrs by LC-MS/MS analysis; format: ADME, organism-based; conditions: in vivo
[5] = Bioavailability in male Sprague-Dawley rat at 20 mg/kg, ip measured after 24 hrs by LC-MS/MS analysis; format: ADME, organism-based; conditions: in vivo
[6] = target: T1, Dual specificity mitogen-activated protein kinase kinase; MEK1/2 (Homo sapiens) (UniProt P36507+Q02750); test: Inhibition of MEK phosphorylation in human NCI-H460 cells exogenously expressing DOT1L R231Q mutant (unknown origin) (1 to 416 residues) at 5 uM by Western blot analysis; format: cell-based
[7] = Toxicity in male BALB/c-nu mouse model xenografted with human NCI-H460 cells harboring DOT1L R231Q mutant assessed as effect on physical activity at 20 mg/kg, ip administered five times a week for 3 weeks; format: organism-based; conditions: in vivo, 504 h
NCI-H460 [8] = test: Inhibition of sphere formation in human NCI-H460 cells exogenously expressing wildtype DOT1L (unknown origin) (1 to 416 residues) assessed as reduction in self-renewal at 2.5 to 5 uM incubated for 7 to 14 days by inverted microscopic analysis; format: functional, cell-based; conditions: dose 2.5-5 µM, time 7-14 day
NCI-H460 [9] = test: Inhibition of colony formation in human NCI-H460 cells exogenously expressing DOT1L R231Q mutant (unknown origin) (1 to 416 residues) at 5 uM incubated for 7 to 14 days by crystal violet staining based light microscopic analysis relative to control; format: functional; conditions: time 7-14 day
NCI-H460 [10] = test: Antiproliferative activity against human NCI-H460 cells harboring wildtype DOT1L (unknown origin) (1 to 416 residues) assessed as inhibition of cell proliferation incubated for 72 hrs by CCK-8 assay; format: functional, cell-based; conditions: NCI-H460, 72 h
NCI-H460 [11] = test: Antiinvasive activity against human NCI-H460 cells exogenously expressing wildtype DOT1L (unknown origin) (1 to 416 residues) assessed as inhibition of cell invasion at 2.5 to 5 uM incubated for 72 hrs by crystal violet staining based transwell invasion assay; format: functional; conditions: dose 2.5-5 µM
[12] = AUC (0 to infinity) in male Sprague-Dawley rat at 20 mg/kg, ip measured after 24 hrs by LC-MS/MS analysis; format: ADME, organism-based; conditions: in vivo
[13] = Tmax in male Sprague-Dawley rat at 20 mg/kg, iv measured after 24 hrs by LC-MS/MS analysis; format: ADME, organism-based; conditions: in vivo
NCI-H460 [14] = test: Effect on H3K27me3 expression in human NCI-H460 cells exogenously expressing wildtype DOT1L (unknown origin) (1 to 416 residues) at 5 uM by Western blot analysis; format: functional, cell-based
NCI-H460 [15] = test: Effect on H3K4me1 expression in human NCI-H460 cells exogenously expressing wildtype DOT1L (unknown origin) (1 to 416 residues) at 5 uM by Western blot analysis; format: functional, cell-based
[16] = Cmax in male Sprague-Dawley rat at 20 mg/kg, ip measured after 24 hrs by LC-MS/MS analysis; format: ADME, organism-based; conditions: in vivo
NCI-H460 [17] = test: Inhibition of colony formation in human NCI-H460 cells exogenously expressing DOT1L R231Q mutant (unknown origin) (1 to 416 residues) at 2.5 to 5 uM incubated for 7 to 14 days by crystal violet staining based light microscopic analysis; format: functional, cell-based; conditions: dose 2.5-5 µM, time 7-14 day
NCI-H460 [18] = test: Induction of DOT1L R231Q mutant (unknown origin) (1 to 416 residues) stabilization exogenously expressed in human NCI-H460 cells assessed as protection against protease E-mediated degradation preincubated for 7 days followed by protease digestion for 10 mins by DARTS assay; format: cell-based; conditions: dose 1.25-5 µM, time 10090.0 min
NCI-H460 [19] = test: Inhibition of colony formation in human NCI-H460 cells exogenously expressing wildtype DOT1L (unknown origin) (1 to 416 residues) at 5 uM incubated for 7 to 14 days by crystal violet staining based light microscopic analysis relative to control; format: functional; conditions: time 7-14 day
[20] = Toxicity in male BALB/c-nu mouse model xenografted with human NCI-H460 cells harboring DOT1L R231Q mutant assessed as effect on lung viscera index at 20 mg/kg, ip administered five times a week for 3 weeks; format: organism-based; conditions: in vivo, 504 h
[21] = Toxicity in male BALB/c-nu mouse model xenografted with human NCI-H460 cells harboring DOT1L R231Q mutant assessed as effect on heart viscera index at 20 mg/kg, ip administered five times a week for 3 weeks; format: organism-based; conditions: in vivo, 504 h
NCI-H460 [22] = test: Inhibition of sphere formation in human NCI-H460 cells exogenously expressing DOT1L R231Q mutant (unknown origin) (1 to 416 residues) assessed as reduction in self-renewal at 2.5 to 5 uM incubated for 7 to 14 days by inverted microscopic analysis; format: functional, cell-based; conditions: dose 2.5-5 µM, time 7-14 day
NCI-H460 [23] = test: Inhibition of DOT1L R231Q mutant (unknown origin) (1 to 416 residues) exogenously expressed in human NCI-H460 cells assessed as reduction in H3K79me2 level at 5 uM by Western blot analysis relative to control; format: cell-based
NCI-H460 [24] = test: Inhibition of colony formation in DOT1L knockdown human NCI-H460 cells at 2.5 to 5 uM incubated for 7 to 14 days by crystal violet staining based light microscopic analysis; format: functional, cell-based; conditions: dose 2.5-5 µM, time 7-14 day
[25] = AUC (0 to infinity) in male Sprague-Dawley rat at 20 mg/kg, iv measured after 24 hrs by LC-MS/MS analysis; format: ADME, organism-based; conditions: in vivo
[26] = Toxicity in male BALB/c-nu mouse model xenografted with human NCI-H460 cells harboring DOT1L R231Q mutant assessed as effect on body weight at 20 mg/kg, ip administered five times a week for 3 weeks; format: organism-based; conditions: in vivo, 504 h
[27] = Tmax in male Sprague-Dawley rat at 20 mg/kg, ip measured after 24 hrs by LC-MS/MS analysis; format: ADME, organism-based; conditions: in vivo
NCI-H460 [28] = test: Inhibition of MAPK/ERK signaling pathway in human NCI-H460 cells exogenously expressing DOT1L R231Q mutant (unknown origin) (1 to 416 residues) assessed as decrease in RAF1 expression at 5 uM by Western blot analysis; format: cell-based
[29] = target: T1, Dual specificity mitogen-activated protein kinase kinase; MEK1/2 (Homo sapiens); test: Inhibition of MEK phosphorylation in human NCI-H460 cells exogenously expressing wildtype DOT1L (unknown origin) (1 to 416 residues) at 5 uM by Western blot analysis; format: cell-based
[30] = Cmax in male Sprague-Dawley rat at 20 mg/kg, iv measured after 24 hrs by LC-MS/MS analysis; format: ADME, organism-based; conditions: in vivo
NCI-H460 [31] = test: Potency index, ratio of SGC0946 IC50 to test compound IC50 for antiproliferative activity against human NCI-H460 cells harboring DOT1L R231Q mutant (unknown origin) (1 to 416 residues) assessed as inhibition of cell proliferation incubated for 72 hrs by CCK-8 assay; format: functional

T1 sequence (P36507 whole entry, looked up, the tested form may be a part): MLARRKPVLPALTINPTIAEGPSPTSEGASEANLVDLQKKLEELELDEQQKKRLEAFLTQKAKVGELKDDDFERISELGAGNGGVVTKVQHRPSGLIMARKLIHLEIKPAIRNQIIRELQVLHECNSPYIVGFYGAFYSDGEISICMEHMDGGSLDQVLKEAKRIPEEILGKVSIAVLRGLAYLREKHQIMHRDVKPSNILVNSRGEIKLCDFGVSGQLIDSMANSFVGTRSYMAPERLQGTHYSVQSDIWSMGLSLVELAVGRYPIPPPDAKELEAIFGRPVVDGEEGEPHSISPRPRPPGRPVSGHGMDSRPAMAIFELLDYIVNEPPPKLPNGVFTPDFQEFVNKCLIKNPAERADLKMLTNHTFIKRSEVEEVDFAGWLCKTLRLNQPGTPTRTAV
T1 sequence (Q02750 whole entry, looked up, the tested form may be a part): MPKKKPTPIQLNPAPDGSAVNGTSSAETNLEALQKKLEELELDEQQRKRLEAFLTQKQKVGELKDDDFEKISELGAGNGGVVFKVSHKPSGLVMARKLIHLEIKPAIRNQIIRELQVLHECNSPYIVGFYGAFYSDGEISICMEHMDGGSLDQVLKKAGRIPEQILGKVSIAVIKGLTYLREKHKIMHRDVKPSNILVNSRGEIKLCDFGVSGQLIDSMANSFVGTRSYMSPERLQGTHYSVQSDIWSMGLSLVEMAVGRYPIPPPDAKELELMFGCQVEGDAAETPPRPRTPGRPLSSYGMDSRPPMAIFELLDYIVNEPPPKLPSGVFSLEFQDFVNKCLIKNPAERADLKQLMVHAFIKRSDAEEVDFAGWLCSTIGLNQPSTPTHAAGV

half-life [3]: 3.9 h
half-life [4]: 6.06 h
bioavailability [5]: 92.2%
inhibition [6]: Active
IC50 (NCI-H460 [10]): 20 µM
AUC(0-inf) [12]: 5710 ng·h/mL
Tmax [13]: 4.98 min
Cmax [16]: 2570 ng/mL
AUC(0-inf) [25]: 6200 ng·h/mL
Tmax [27]: 0.25 h
inhibition [29]: inactive
Cmax [30]: 3000 ng/mL
SMILES: CC(C)(C)c1ccc(NC(=O)NCCCN(CCCN2CCOCC2)CC2(O)CCN(c3nc(Cl)nc4sccc34)C2)cc1 (stereo unspecified)
inhibition at 5 µM (NCI-H460 [1]): 68.9%
Activity (NCI-H460 [2]): 38.3%
Activity [7]: Non-Toxic
inhibition (NCI-H460 [8]): Active
inhibition at 5 µM (NCI-H460 [9]): 72.8%
Activity (NCI-H460 [11]): Active
Activity (NCI-H460 [14]): inactive
Activity (NCI-H460 [15]): inactive
inhibition (NCI-H460 [17]): Active
Activity (NCI-H460 [18]): Dose-Dependent Effect
inhibition at 5 µM (NCI-H460 [19]): 42%
Activity [20]: Non-Toxic
Activity [21]: Non-Toxic
inhibition (NCI-H460 [22]): Active
inhibition (NCI-H460 [23]): > 50%
inhibition (NCI-H460 [24]): inactive
Activity [26]: Non-Toxic
inhibition (NCI-H460 [28]): Active
Ratio IC50 (NCI-H460 [31]): 1.3
